In PMC11274643, “Design, Synthesis, Characterization, and Cytotoxicity of New Pyrazolylmethylene-2-thioxoimidazolidin-4-one Derivatives towards Androgen-Sensitive LNCaP Prostate Cancer Cells” (Biomolecules, 2024):
Values belong to the compound of their own block, whether it stands above or below them.

How the values were obtained:
[1] = test system: Wi38 normal human lung fibroblast cell line; experiment: MTT in vitro cytotoxicity assay, 24 h incubation; assay type: cell-based; conditions: WI-38
Experimental: (§1) The antitumor properties of pyrazolylmethylene-2-thioxoimidazolidin-4-one derivatives (3a–p) against androgen-sensitive (AR^+LNCaP; ATCC CRL-1740, Accession: CVCL_0395) and androgen-insensitive (AR^-PC-3; ATCC CRL-1435, Accession: CVCL_D5ZS) human prostate cancer cell lines in addition to normal human lung fibroblast cell line (Wi38, Accession: CVCL_2759) were evaluated by MTT assay. AR^+LNCaP, AR^-PC-3, and Wi38 cell lines were purchased frozen in liquid nitrogen from Egyptian Company for Production of Vaccines, Sera and Drugs, Cairo, Egypt (VACSERA). Tumor cell lines were stored as monolayer cultures in DMEM supplemented with 10% FBS and 1% penicillin–streptomycin. MTT assay was carried out as described previously in the literature. In brief, AR^+LNCaP, AR^-PC-3, and Wi38 cells were cultured into 96-well plates containing 100 µL of culture medium per each well. […] A control containing only culture medium was also applied. The assay was performed in triplicate. The cells were incubated overnight to grow at 37 °C in 5% CO2. After removing the growth medium, 100 µL of MTT (0.4 mg/mL of PBS) were added. After 24 h of incubation, the supernatant was removed and 100 µL of DMSO (Sigma Aldrich, Germany) were then added to each sample. Absorbance at 550 nm was measured. The formula (Reading of extract/Reading of negative control) × 100 was applied to calculate the viability percentage. The IC50 value of test compounds (3a–p) was also determined using CPE measurements of normal Wi38 cells (normal human lung fibroblast cells). The MTT assay was repeated with the test compounds (3i, 3k, 3o, 3j, 3p, and 3m) using the three cell types which were stimulated by 1 nM DHT after 48 h of incubation. IC50 values were estimated using Graph Pad Prism computer software (International Scientific Community, San Diego, CA, USA) from linear regression analysis of the concentration–response curves plotted for each tested compound [36].
(§2) In vitro cytotoxicity assay was performed to elucidate the antitumor properties of the synthesized derivatives of pyrazolylmethylene-2-thioxoimidazolidin-4-one. […] The cytotoxicity assay was performed using MTT assay as described in the Materials and Methods Section 2.4.1. The test compounds were dissolved in DMSO as stock solutions (<0.5% (v/v)) and stored in the dark at −20 °C. The human prostate cancer cells and normal human lung fibroblast cells were subjected to variable doses of the compounds for 24 h.

[2] = test system: AR-PC-3 androgen-insensitive human prostate cancer cell line; experiment: MTT in vitro cytotoxicity assay, 24 h incubation; assay type: cell-based; conditions: for IC50: Homo sapiens, MTT; for Selective Index Wi38/PC-3: ratio of IC50 values
Experimental: as §1, §2

[3] = test system: AR+LNCaP androgen-sensitive human prostate cancer cell line; experiment: MTT in vitro cytotoxicity assay, 24 h incubation; assay type: cell-based; conditions: for IC50: Homo sapiens, MTT; for Selective Index Wi38/Lncap: ratio of IC50 values
Experimental: as §1, §2

[4] = test system: Wi38 normal human lung fibroblast cell line; experiment: MTT cytotoxicity assay in presence of 1 nM DHT, 48 h incubation; assay type: cell-based; conditions: WI-38, read-out: IC50 Wi38
Experimental: as §1
(§3) The assay was performed in the presence of dihydrotestosterone (1 nM DHT) for 48 h of incubation as previously described. DHT is a potent inducer of androgens that enhances prostate cancer disease progression.

[5] = test system: AR-PC-3 androgen-insensitive human prostate cancer cell line; experiment: as above; assay type: cell-based
Experimental: as §1, §3

[6] = test system: AR+LNCaP androgen-sensitive human prostate cancer cell line; experiment: as above; assay type: cell-based
Experimental: as §1, §3

[7] = test system: active human caspase-3 in AR+LNCaP cells; experiment: Detection of active Caspase 3 in AR+LNCaP cell lysates (Invitrogen Elisa kit); assay type: cell-based; parameters: Caspase 3 Conc. (Average): unit not given here; conditions: for Caspase 3 fld / Caspase 3: LNCaP, supplement lab report; for Caspase 3 fld: fold of control; for Caspase 3 Conc. (Average): supplement ELISA read-out, average of two wells
Experimental: Untreated AR^+LNCaP and Enzalutamide-treated AR^+LNCaP were used as negative and positive controls, respectively. AR^+LNCaP cells were cultured in 96-well plates at a cell density of 1 × 10^4 cells/well. Cells were then lysed with 50 µL lysis buffer/well supplemented with the Invitrogen Elisa kit for detection of active human caspase-3 (Invitrogen, Camarillo, CA, USA). Plates were frozen at −80 °C for 30 min and then thawed. The lysate was mixed with 2 Z-DEVD-R110 substrate and incubated at room temperature for 30 min. A fluorescence microplate reader (Tecan, Mainz-Kastel, Germany), was used to measure fluorescence via excitation at 496 nm and emission detection at 520 nm. Values were normalized with total protein content. Active caspase 3 accumulation was determined based on standard dilution series of Human Caspase-3 samples provided with the kit. […]

AR+LNCaP cells [8] = experiment: Cell apoptosis assay (Annexin V-FITC, flow cytometry); assay type: cell-based, human; conditions: IC50 concentration, 1 nM DHT, 24 h
Experimental: Cell apoptosis assay was performed to ensure the efficacy of compounds 3i and 3k against the progression of AR^+LNCaP tumor cell growth in the presence of 1 nM DHT. Untreated AR^+LNCaP and Enzalutamide-treated AR^+LNCaP were used in this assay as negative and positive controls, respectively. AR^+LNCaP cells were precultured in 25 cm^2 flasks. Briefly, 1 nM DHT was then added to the growing cells. […] AR^+LNCaP cells were harvested and fixed with 70% (v/v) ethanol in FBS (Sigma-Aldrich, Germany), then maintained at 4 °C overnight. The cells were resuspended in FBS containing 0.1% (v/v) Triton X-100, 40 µg/mL […], and 0.1 mg/mL RNase then incubated in a dark chamber at 37 °C for 30 min. A flow-cytometer (Becton Dickinson, San Jose, CA, USA) supplemented with an argon ion laser at a wavelength of 488 nm was used to analyze the AR^+LNCaP cell apoptotic stages. Based on the protocol described by Ozgur et al. (2003), analysis of the data was implemented using Multicycle Software (Phoenix Flow Systems, San Diego, CA, USA; http://www.phoenixflow.com/index.html).
The active compounds 3i and 3k were further analyzed to evaluate their antitumor properties against the growth of the AR^+LNCaP prostate cancer cell line. […] Untreated AR^+LNCaP cells and Enzalutamide reference drug were also used as negative and positive controls in this assay, respectively.

AR+LNCaP cells [9] = experiment: DNA content at cell cycle stages (Propidium Iodide flow cytometry); assay type: cell-based, human; conditions: IC50 concentration, 1 nM DHT
Experimental: The amount of DNA contents of AR^+LNCaP cells stimulated with 1 nM DHT and treated with representative test compounds 3i and 3k at the different stages of the cell cycle were quantitatively evaluated as described previously. […] The Ab139418–Propidium Iodide Flow Cytometry Kit for Cell Cycle Analysis (ab139418, Abcam, Cambridge, UK) was employed for this assay following the procedures provided by the supplier.
Firstly, the ab139418-Propidium Iodide Flow Cytometry Kit for Cell Cycle Analysis (Bio vision, Boston, MA, USA) was used to quantify DNA contents at each cell cycle stage as an indicator of the cell cycle growth arrest.

Compound: O=C1NC(=S)NC1=Cc1cn(-c2ccc(F)cc2)nc1-c1ccc(F)cc1 [Compound 3h, 5-((1,3-Bis(4-fluorophenyl)-1H-pyrazol-4-yl)methylene)-2-thioxoimidazolidin-4-one]
melting point: 178 to 179 °C | IC50 [1]: 20.96 ± 0.13 µM | IC50 [2]: 18.8 ± 0.14 µM | Selective Index Wi38/PC-3 [2]: 1.0 | IC50 [3]: 19.48 ± 0.05 µM | Selective Index Wi38/Lncap [3]: 1.0

Compound: O=C1NC(=S)NC1=Cc1cn(-c2ccc(F)cc2)nc1-c1ccc(Br)cc1 [Compound 3j, 5-((3-(4-Bromophenyl)-1-(4-fluorophenyl)-1H-pyrazol-4-yl)methylene)-2-thioxoimidazolidin-4-one]
CC50 [4]: 21.08 ± 0.06 µM | IC50 [5]: 14.2 ± 0.15 µM | IC50 ([6]; Homo sapiens): 7.72 ± 0.15 µM | Selectivity AR-/AR+ ([6]; IC50 PC-3 / IC50 LNCaP): 1.8 | active Caspase 3 fold change compared to untreated cells ([7]; IC50 concentration, 1 nM DHT, AR+LNCaP lysate): 4.2 fold | induction of active caspase 3 as a percentage of the reference drug Enzalutamide ([7]; IC50 concentration, AR+LNCaP): 63.0% | Caspase 3 fld [7]: 4.115 | Caspase 3 [7]: 316.5 pg/mL | Caspase 3 Conc. (Average) [7]: 316.5 | melting point: 199 to 201 °C | IC50 [1]: 31.18 ± 0.16 µM | IC50 [2]: 24.44 ± 0.12 µM | Selective Index Wi38/PC-3 [2]: 1.5 | IC50 [3]: 13.9 ± 0.14 µM | Selective Index Wi38/Lncap [3]: 2.2

Compound: COc1ccc(-c2nn(-c3ccc(F)cc3)cc2C=C2NC(=S)NC2=O)cc1 [Compound 3n, 5-((1-(4-Fluorophenyl)-3-(4-methoxyphenyl)-1H-pyrazol-4-yl)methylene)-2-thioxoimidazolidin-4-one]
melting point: 179 to 181 °C | IC50 [1]: 26.93 ± 0.09 µM | IC50 [2]: 23.25 ± 0.08 µM | Selective Index Wi38/PC-3 [2]: 1.2 | IC50 [3]: 15.02 ± 0.15 µM | Selective Index Wi38/Lncap [3]: 1.8

Compound: COc1cccc2c1C(=O)c1c(O)c3c(c(O)c1C2=O)C[C@@](O)(C(=O)CO)C[C@@H]3O[C@H]1C[C@H](N)[C@H](O)[C@H](C)O1 [Doxorubicin, reference compound]
IC50 [1]: 15.14 ± 0.12 µM | IC50 [2]: 10 ± 0.18 µM | Selective Index Wi38/PC-3 [2]: 1.5 | IC50 [3]: 11.4 ± 0.16 µM | Selective Index Wi38/Lncap [3]: 1.3

Compound: CNC(=O)c1ccc(N2C(=S)N(c3ccc(C#N)c(C(F)(F)F)c3)C(=O)C2(C)C)cc1F [Enzalutamide, reference compound]
Caspase 3 fld [7]: 6.923 | Caspase 3 [7]: 532.4 pg/mL | Caspase 3 Conc. (Average) [7]: 532.4 | Early Apoptosis (%) (AR+LNCaP cells [8]): 9.46% | Late Apoptosis (%) (AR+LNCaP cells [8]): 21.27% | Necrotic Cells (%) (AR+LNCaP cells [8]): 3.13% | Total Apoptosis (%) (AR+LNCaP cells [8]): 33.86% | DNA Content (%) G0–G1 (AR+LNCaP cells [9]): 61.02% | DNA Content (%) G2/M (AR+LNCaP cells [9]): 25.37%

Now from value to compound, other results behind:

melting point: 186 to 188 °C
Compound: O=C1NC(=S)NC1=Cc1cn(-c2ccccc2)nc1-c1ccc(F)cc1 [Compound 3a, 5-((3-(4-Fluorophenyl)-1-phenyl-1H-pyrazol-4-yl)methylene)-2-thioxoimidazolidin-4-one]
IC50 [1]: 63.27 ± 0.18 µM | IC50 [2]: 16.8 ± 0.34 µM | Selective Index Wi38/PC-3 [2]: 3.8 | IC50 [3]: 26.57 ± 0.04 µM | Selective Index Wi38/Lncap [3]: 2.4

melting point: 183 to 184 °C
Compound: O=C1NC(=S)NC1=Cc1cn(-c2ccccc2)nc1-c1ccc(Cl)cc1 [Compound 3b, 5-((3-(4-Chlorophenyl)-1-phenyl-1H-pyrazol-4-yl)methylene)-2-thioxoimidazolidin-4-one]
IC50 [1]: 24.26 ± 0.06 µM | IC50 [2]: 21.92 ± 0.12 µM | Selective Index Wi38/PC-3 [2]: 0.9 | IC50 [3]: 20.79 ± 0.06 µM | Selective Index Wi38/Lncap [3]: 1.0

melting point: 193 to 195 °C
Compound: O=C1NC(=S)NC1=Cc1cn(-c2ccccc2)nc1-c1ccc(Br)cc1 [Compound 3c, 5-((3-(4-Bromophenyl)-1-phenyl-1H-pyrazol-4-yl)methylene)-2-thioxoimidazolidin-4-one]
IC50 [1]: 87.9 ± 2.96 µM | IC50 [2]: 20.9 ± 1.12 µM | Selective Index Wi38/PC-3 [2]: 4.2 | IC50 [3]: 110 ± 2.06 µM | Selective Index Wi38/Lncap [3]: 0.8

melting point: 183 to 185 °C
Compound: O=C1NC(=S)NC1=Cc1cn(-c2ccccc2)nc1-c1ccc(C(F)(F)F)cc1 [Compound 3d, 5-((1-Phenyl-3-(4-(trifluoromethyl)phenyl)-1H-pyrazol-4-yl)methylene)-2-thioxoimidazolidin-4-one]
IC50 [1]: 48.19 ± 0.21 µM | IC50 [2]: 177.2 ± 0.61 µM | Selective Index Wi38/PC-3 [2]: 0.3 | IC50 [3]: 23.5 ± 0.74 µM | Selective Index Wi38/Lncap [3]: 2.0

melting point: 168 to 179 °C
Compound: O=C1NC(=S)NC1=Cc1cn(-c2ccccc2)nc1-c1ccccc1 [Compound 3e, 5-((1,3-Diphenyl-1H-pyrazol-4-yl)methylene)-2-thioxoimidazolidin-4-one]
IC50 [1]: 63.24 ± 0.26 µM | IC50 [2]: 20.1 ± 0.21 µM | Selective Index Wi38/PC-3 [2]: 3.2 | IC50 [3]: 33.9 ± 0.12 µM | Selective Index Wi38/Lncap [3]: 1.9

melting point: 189 to 191 °C
Compound: Cc1ccc(-c2nn(-c3ccccc3)cc2C=C2NC(=S)NC2=O)cc1 [Compound 3f, 5-((1-Phenyl-3-(p-tolyl)-1H-pyrazol-4-yl)methylene)-2-thioxoimidazolidin-4-one]
IC50 [1]: 56.56 ± 0.14 µM | IC50 [2]: 20.19 ± 0.04 µM | Selective Index Wi38/PC-3 [2]: 2.8 | IC50 [3]: 54.19 ± 0.11 µM | Selective Index Wi38/Lncap [3]: 1.0

melting point: 195 to 197 °C
Compound: Nc1ccc(-c2nn(-c3ccccc3)cc2C=C2NC(=S)NC2=O)cc1 [Compound 3g, 5-((3-(4-Aminophenyl)-1-phenyl-1H-pyrazol-4-yl)methylene)-2-thioxoimidazolidin-4-one]
IC50 [1]: 56.62 ± 0.16 µM | IC50 [2]: 26.8 ± 0.39 µM | Selective Index Wi38/PC-3 [2]: 2.1 | IC50 [3]: 47.31 ± 0.18 µM | Selective Index Wi38/Lncap [3]: 1.2

melting point: 189 to 191 °C
Compound: O=C1NC(=S)NC1=Cc1cn(-c2ccc(F)cc2)nc1-c1ccccc1 [Compound 3l, 5-((1-(4-Fluorophenyl)-3-phenyl-1H-pyrazol-4-yl)methylene)-2-thioxoimidazolidin-4-one]
IC50 [1]: 26.81 ± 0.06 µM | IC50 [2]: 15.3 ± 0.04 µM | Selective Index Wi38/PC-3 [2]: 1.8 | IC50 [3]: 20.8 ± 0.04 µM | Selective Index Wi38/Lncap [3]: 1.3
